± gives the expanded uncertainty stated by the source.
Assay: mn = molality of the nth substance listed, in mol/kg
Settings: for electrical conductivity / mass density: 100 kPa, Liquid; for electrical conductivity: Direct current cell with electrodes; for mass density: Vibrating tube method; for surface tension liquid-gas: Ring tensiometer

CCCCCCCCCCCC[n+]1cscc1C.[Br-] [N-dodecyl-4-methylthiazolium bromide] + O
Settings	electrical conductivity [S/m]	mass density [kg/m3]	surface tension liquid-gas [mN/m]
293.15 K, m1 = 0.0015	0.0135 ± 0.00082	998.25 ± 1.6	–
293.15 K, m1 = 0.00206	0.0179 ± 0.0012	998.29 ± 1.6	–
293.15 K, m1 = 0.0025	0.0221 ± 0.0014	998.31 ± 1.6	–
293.15 K, m1 = 0.00402	0.0346 ± 0.0022	998.4 ± 1.6	–
293.15 K, m1 = 0.005	0.0428 ± 0.0027	998.45 ± 1.6	–
293.15 K, m1 = 0.00561	–	998.48 ± 1.6	–
293.15 K, m1 = 0.00708	0.0591 ± 0.0037	998.56 ± 1.6	–
293.15 K, m1 = 0.00803	–	998.6 ± 1.6	–
293.15 K, m1 = 0.00906	0.0738 ± 0.0032	998.66 ± 1.6	–
293.15 K, m1 = 0.01216	0.0813 ± 0.0031	998.81 ± 1.6	–
293.15 K, m1 = 0.01507	0.0893 ± 0.0038	998.96 ± 1.6	–
293.15 K, m1 = 0.01759	–	999.07 ± 1.6	–
293.15 K, m1 = 0.02033	0.106 ± 0.005	999.21 ± 1.6	–
293.15 K, m1 = 0.02365	–	999.38 ± 1.6	–
298.15 K, m1 = 0.0015	0.015 ± 0.00092	997.07 ± 1.6	–
298.15 K, m1 = 0.00206	0.02 ± 0.0013	997.1 ± 1.6	–
298.15 K, m1 = 0.0025	0.0246 ± 0.0016	997.12 ± 1.6	–
298.15 K, m1 = 0.00402	0.0387 ± 0.0025	997.2 ± 1.6	–
298.15 K, m1 = 0.005	0.0479 ± 0.003	997.25 ± 1.6	–
298.15 K, m1 = 0.00561	–	997.29 ± 1.6	–
298.15 K, m1 = 0.00708	0.0662 ± 0.0041	997.36 ± 1.6	–
298.15 K, m1 = 0.00803	–	997.42 ± 1.6	–
298.15 K, m1 = 0.00906	0.0822 ± 0.0036	997.47 ± 1.6	–
298.15 K, m1 = 0.01216	0.0921 ± 0.0036	997.62 ± 1.6	–
298.15 K, m1 = 0.01507	0.101 ± 0.0043	997.75 ± 1.6	–
298.15 K, m1 = 0.01759	–	997.86 ± 1.6	–
298.15 K, m1 = 0.02033	0.12 ± 0.0058	998 ± 1.6	–
298.15 K, m1 = 0.02365	–	998.16 ± 1.6	–
303.15 K, m1 = 0.0015	0.0166 ± 0.001	995.66 ± 1.6	47.78 ± 1.6
303.15 K, m1 = 0.00206	0.0222 ± 0.0015	995.68 ± 1.6	43.39 ± 1.4
303.15 K, m1 = 0.0025	0.0272 ± 0.0018	995.7 ± 1.6	41.79 ± 1.4
303.15 K, m1 = 0.00402	0.0428 ± 0.0028	995.77 ± 1.6	39.49 ± 1.3
303.15 K, m1 = 0.005	0.0529 ± 0.0034	995.82 ± 1.6	35.96 ± 1.2
303.15 K, m1 = 0.00561	–	995.86 ± 1.6	–
303.15 K, m1 = 0.00708	0.0733 ± 0.0046	995.93 ± 1.6	30.49 ± 1
303.15 K, m1 = 0.00803	–	995.98 ± 1.6	–
303.15 K, m1 = 0.00906	0.0917 ± 0.004	996.03 ± 1.6	30.89 ± 1
303.15 K, m1 = 0.01216	0.103 ± 0.0041	996.17 ± 1.6	31.36 ± 1
303.15 K, m1 = 0.01507	0.114 ± 0.0051	996.3 ± 1.6	30.86 ± 1
303.15 K, m1 = 0.01759	–	996.4 ± 1.6	–
303.15 K, m1 = 0.02033	0.137 ± 0.0064	996.53 ± 1.6	30.91 ± 1
303.15 K, m1 = 0.02365	–	996.65 ± 1.6	–
308.15 K, m1 = 0.0015	0.0184 ± 0.0011	994.04 ± 1.6	–
308.15 K, m1 = 0.00206	0.0244 ± 0.0016	994.06 ± 1.6	–
308.15 K, m1 = 0.0025	0.03 ± 0.0019	994.08 ± 1.6	–
308.15 K, m1 = 0.00402	0.047 ± 0.0031	994.13 ± 1.6	–
308.15 K, m1 = 0.005	0.0581 ± 0.0037	994.18 ± 1.6	–
308.15 K, m1 = 0.00561	–	994.21 ± 1.6	–
308.15 K, m1 = 0.00708	0.0803 ± 0.005	994.28 ± 1.6	–
308.15 K, m1 = 0.00803	–	994.33 ± 1.6	–
308.15 K, m1 = 0.00906	0.1 ± 0.0046	994.37 ± 1.6	–
308.15 K, m1 = 0.01216	0.114 ± 0.0047	994.49 ± 1.6	–
308.15 K, m1 = 0.01507	0.127 ± 0.0055	994.61 ± 1.6	–
308.15 K, m1 = 0.01759	–	994.69 ± 1.6	–
308.15 K, m1 = 0.02033	0.15 ± 0.0069	994.82 ± 1.6	–
308.15 K, m1 = 0.02365	–	994.89 ± 1.6	–
313.15 K, m1 = 0.0015	0.02 ± 0.0012	992.22 ± 1.6	–
313.15 K, m1 = 0.00206	0.0267 ± 0.0018	992.23 ± 1.6	–
313.15 K, m1 = 0.0025	0.0329 ± 0.0021	992.24 ± 1.6	–
313.15 K, m1 = 0.00402	0.0515 ± 0.0033	992.28 ± 1.6	–
313.15 K, m1 = 0.005	0.0634 ± 0.004	992.31 ± 1.6	–
313.15 K, m1 = 0.00561	–	992.34 ± 1.6	–
313.15 K, m1 = 0.00708	0.0877 ± 0.0055	992.39 ± 1.6	–
313.15 K, m1 = 0.00803	–	992.43 ± 1.6	–
313.15 K, m1 = 0.00906	0.11 ± 0.0051	992.47 ± 1.6	–
313.15 K, m1 = 0.01216	0.125 ± 0.005	992.61 ± 1.6	–
313.15 K, m1 = 0.01507	0.138 ± 0.0058	992.72 ± 1.6	–
313.15 K, m1 = 0.01759	–	992.81 ± 1.6	–
313.15 K, m1 = 0.02033	0.162 ± 0.0075	992.9 ± 1.6	–
313.15 K, m1 = 0.02365	–	993 ± 1.6	–

Source: the NIST ThermoML archive (doi:10.1016/j.jct.2018.12.021)
